Test results taken from US7700552B2, “Macrocyclic inhibitors of hepatitis C virus” (Medivir AB, priority 2005, dated 2010).
pEC50, pKi: −log10 of the molar value.

Assays:
[1] = test system: HCV replicons (NS3-NS5B regions of HCV type 1b) in Huh-7 luc/neo cells; test: HCV replicon assay (Huh-Luc cells, luciferase readout); type: cell-based; conditions: Hepatitis C virus, Huh-7, 72 h, HCV type 1b replicon, three days incubation, luciferase activity
Excerpt: The compounds of formula (I) were examined for activity in the inhibition of HCV RNA replication in a cellular assay. […] The cellular assay was based on a bicistronic expression construct, as described by Lohmann et al. (1999) Science vol. 285 pp. 110-113 with modifications described by Krieger et al. (2001) Journal of Virology 75: 4614-4624, in a multi-target screening strategy. In essence, the method was as follows.
The assay utilized the stably transfected cell line Huh-7 luc/neo (hereafter referred to as Huh-Luc). This cell line harbors an RNA encoding a bicistronic expression construct comprising the wild type NS3-NS5B regions of HCV type 1b translated from an Internal Ribosome Entry Site (IRES) from encephalomyocarditis virus (EMCV), preceded by a reporter portion (FfL-luciferase), and a selectable marker portion (neo^R, neomycine phosphotransferase). […]
The replicon cells were plated in 384 well plates in the presence of the test and control compounds which were added in various concentrations. Following an incubation of three days, HCV replication was measured by assaying luciferase activity (using standard luciferase assay substrates and reagents and a Perkin Elmer ViewLux™ ultraHTS microplate imager). […] The inhibitory activity of the compound on luciferase activity was monitored on the Huh-Luc cells, enabling a dose-response curve for each test compound.

[2] = target: T1, full-length hepatitis C NS3 protease enzyme with NS4A cofactor (HCV NS3/4A protease complexes) (Hepatitis C virus genotype 1a, UniProt P27958); test: HCV NS3/4A protease inhibition assay (enzymatic); type: biochemical; conditions: full-length NS3 1 nM, 25 μM NS4A cofactor, 0.5 μM depsipeptide substrate, 30° C., competitive inhibition model
T1 construct: full-length hepatitis C NS3 protease enzyme
Procedure: [Landro, 1997 #Biochem 36 9340-9348]. […] The solutions were stored at −20° C. between measurements.
The final concentration of DMSO in the assay sample is adjusted to 3.3%. The rate of hydrolysis is corrected for inner filter effects according to published procedures. [Liu, 1999 Analytical Biochemistry 267 331-335]. […] A minimum of two replicates are performed for all measurements.

T1 sequence (P27958 1027-1657, one chain of several): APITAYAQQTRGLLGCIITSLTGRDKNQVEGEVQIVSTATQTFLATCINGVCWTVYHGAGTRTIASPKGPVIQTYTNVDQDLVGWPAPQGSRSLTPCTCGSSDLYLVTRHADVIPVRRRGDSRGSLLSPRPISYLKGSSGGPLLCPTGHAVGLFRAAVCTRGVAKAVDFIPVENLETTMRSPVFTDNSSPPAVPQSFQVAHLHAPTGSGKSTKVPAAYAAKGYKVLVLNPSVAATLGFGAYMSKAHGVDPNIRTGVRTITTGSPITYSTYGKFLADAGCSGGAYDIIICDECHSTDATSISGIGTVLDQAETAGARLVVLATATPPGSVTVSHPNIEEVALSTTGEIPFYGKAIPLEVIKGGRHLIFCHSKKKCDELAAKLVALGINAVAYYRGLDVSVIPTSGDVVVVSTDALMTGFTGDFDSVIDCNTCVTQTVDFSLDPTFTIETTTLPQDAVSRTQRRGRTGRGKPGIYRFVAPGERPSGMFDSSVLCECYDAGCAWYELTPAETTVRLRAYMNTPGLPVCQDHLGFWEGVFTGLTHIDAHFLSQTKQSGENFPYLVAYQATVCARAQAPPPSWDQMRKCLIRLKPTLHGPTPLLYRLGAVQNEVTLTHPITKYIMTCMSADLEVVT

| Compound | pEC50 [1] | pKi [2] |
| --- | --- | --- |
| COc1ccc2c(O[C@@H]3C[C@H]4C(=O)N[C@]5(C(=O)NS(=O)(=O)C6CC6)CC5/C=C\CCCCN(N(C)C)C(=O)[C@@H]4C3)cc(-c3ccccc3)nc2c1 (stereo partly shown) [Example 89, Cyclopropanesulphonic acid [13-dimethylamino-17-(7-methoxy-2-phenyl-quinolin-4-yloxy)-2,14-dioxo-3,13-diaza-tricyclo[13.3.0.0*4,6*]octadec-7-ene-4-carbonyl]-amide] | 7.31 to 9.30 | 8.31 to 10.00 |
| COc1ccc2c(O[C@@H]3C[C@H]4C(=O)N[C@]5(C(=O)O)CC5/C=C\CCCCN(N(C)C)C(=O)[C@@H]4C3)cc(-c3ccccc3)nc2c1 (stereo partly shown) [Example 88, 13-Dimethylamino-17-(7-methoxy-2-phenyl-quinolin-4-yloxy-2,14-dioxo-3,13-diaza-tricyclo[13.3.0.0*4,6*]octadec-7-ene-4-carboxylic acid] | 5.00 to 6.00 | 5.70 to 7.00 |
